{"source": "patent US8927580B2", "about": "“Thiosemicarbazone compounds and use in the treatment of cancer” (Oncochel Therapeutics LLC, priority 2010, dated 2015)", "key": {"[1]": {"test_system": "PANC 1 pancreatic cancer cells", "experiment": "MTT proliferation assay, PANC 1", "type": "cell-based", "settings": "Homo sapiens; PANC 1, MTT, 72 h", "method": "(§1) The pancreatic cancer cell lines, including MIAPaCa-2, PANC 1, CAPAN-2 and CFPAC-1 were a generous gift from Prof. Andrew Biankin (Garvan Institute, NSW, Australia). The MIAPaCa-2, PANC 1 and CFPAC-1 cell lines were grown in DMEM medium (Invitrogen) and CAPAN-2 cells were grown in McCoy's medium (Invitrogen). All media was supplemented with 10% (v/v) fetal calf serum (Invitrogen), 1% (v/v) non-essential amino acids (Invitrogen), 1% (v/v) sodium pyruvate (Invitrogen), 2 mM L-glutamine (Invitrogen), 100 μg/mL of streptomycin (Invitrogen), 100 U/ml penicillin (Invitrogen), and 0.28 μg/mL of fungizone.\n(§2) To further examine the spectrum of anti-proliferative activity, Dp4cycH4mT was tested against pancreatic cancer in vitro, performing MTT proliferation assays with PANC 1, MIAPaCa-2, CFPAC-1 and CAPAN-2 pancreatic cancer cells. As a comparison, currently used treatments for pancreatic cancer including gemcitabine and 5-fluorouracil were also tested. The iron chelator, DFO, was included as a positive control.\n(§3) Table 2A. Anti-proliferative activity of Dp4cycH4mT against pancreatic cancer cell lines. Growth and antiproliferative activity IC50 (μM) values of Dp4cycH4mT in a variety of pancreatic cell lines and in comparison to DFO and the clinically used drugs gemcitabine and 5-fluorouracil as determined by the MTT assay. Cells were seeded and allowed to attach to wells for 24 h and then incubated for 72 h at 37° C. with control medium or the chelators. Results are mean±SD (3 experiments).\nas §3, with “2B.” for “2A.”, “IC90” for “Growth and antiproliferative activity IC50”"}, "[2]": {"test_system": "methemoglobin (metHb)", "experiment": "metHb formation in vivo", "parameters": "species or system C57BL6 mice", "settings": "6 mg/kg intravenously, blood taken after 30 min", "method": "FIG. 13. Effect of thiosemicarbazone chelators on metHb-formation in vivo. MetHb after Dp44mT, Triapine® or Dp4cycH4mT treatment in vivo at a dose of 6 mg/kg administered intravenously via the tail vein. Mice in the control group were treated with vehicle alone. At 30 minutes post-administration, whole blood was collected for determination of metHb levels.\n(§4) The levels of metHb and metMb in RBC lysates were determined using a Shimadzu UV-Vis spectrophotometer (UV-1800; Shimadzu Corporation, Kyoto, Japan) at 577 nm and 630 nm for metHb and metMb in accordance with published methods (Winterbourn CC and Carrell R W (1977). Biochem J 165: 141-148).\n(§5) C57BL6 mice (7-8 weeks-old) were used under a protocol approved by the university of Sydney Animal Ethics Committee. Dp44mT, Triapine® or Dp4cycH4mT (all at 6 mg/kg) were dissolved in 30% propylene glycol/saline and administered iv via the tail vein. Subsequently, 30 min after administration, mice were anesthetized with isoflurane and blood samples obtained by cardiac puncture. Blood samples were lysed with 2.5 volumes of ultrapure water for metHb estimation. Mice were sacrificed with isoflurane, the heart exhaustively perfused with HBSS and Mb isolated."}, "[3]": {"test_system": "p21", "experiment": "Western blot analysis, p21 expression", "type": "cell-based", "settings": "MIAPaCa-2 cells", "method": "Western analysis was performed via established protocols (Gao, J. and D. R. Richardson (2001). Blood 98: 842-50). The primary antibodies used were against NDRG1 (Abcam; UK), p21, cyclin D1, transferrin receptor 1 (TfR1; Santa Cruz, CA, USA) and β-actin (Sigma-Aldrich), with secondary HRP-conjugated goat and mouse antibodies (Sigma-Aldrich).\nDp4cycH4mT was examined to determine whether it could up-regulate NDRG-1 expression. To further evaluate the effect of the chelator Dp4cycH4mT on other key molecules involved in cell cycle progression, the expression of the cyclin-dependent kinase inhibitor, p21, as well as cyclin D1 in MIAPaCa-2 cells was also examined."}, "[4]": {"test_system": "metmyoglobin (metMb)", "experiment": "metMb formation in vivo", "parameters": "species or system C57BL6 mice", "settings": "6 mg/kg intravenously, 30 min post-administration, heart", "method": "FIG. 14. Effect of thiosemicarbazone chelators on metMb-formation in vivo. MetMb levels after Dp44mT Triapine® or Dp4cycH4mT treatment in vivo at a dose of 6 mg/kg administered intravenously via the tail vein. Mice in the control group were treated with vehicle alone. At 30 min post-administration, whole hearts were collected for determination of metMb levels.\nMouse heart tissue was exhaustively perfused with ice-cold HBSS to remove blood and homogenized in ice-cold HBSS containing protease inhibitor cocktail (Roche, Basel, Switzerland). Heart homogenates were centrifuged (16,000×xg/45 min/4° C.) and the supernatant ([oxyMb]=50 μM) used immediately.\nas §4, §5"}, "[5]": {"test_system": "pancreatic cancer cell lines", "experiment": "MTT proliferation assays, pancreatic cancer cell line panel (comparison of IC50)", "type": "cell-based", "settings": "in 2 out of the 4 cell types", "method": "as §1, §2\nTable 2A. Anti-proliferative activity of Dp4cycH4mT against pancreatic cancer cell lines. […]. Cells were seeded and allowed to attach to wells for 24 h and then incubated for 72 h at 37° C. with control medium or the chelators. Results are mean±SD (3 experiments)."}, "[6]": {"test_system": "MIAPaCa-2 pancreatic cancer cells", "experiment": "MTT proliferation assay, MIAPaCa-2", "type": "cell-based", "settings": "Homo sapiens, MIA PaCa-2; MIAPaCa-2, MTT, 72 h", "method": "as §1, §2, §3\nas §3, with “2B.” for “2A.”, “IC90” for “Growth and antiproliferative activity IC50”"}}, "data": [{"smiles": "CN(C(=S)NN=C(c1ccccn1)c1ccccn1)C1CCCCC1", "note": "[Dp4cycH4mT, di-2-pyridylketone 4-cyclohexyl-4-methyl-3-thiosemicarbazone]", "values": [{"measurement": "IC50", "setting": "[1]", "value": "50 ± 2", "unit": "nM"}, {"measurement": "IC90", "setting": "[1]", "value": "> 5000", "unit": "nM"}, {"measurement": "metHb (% of total Hb)", "setting": "[2]", "value": "comparable to the control"}, {"measurement": "p21 expression", "setting": "[3]", "value": "markedly (p<0.05) increasing"}, {"measurement": "levels of metMb", "setting": "[4]", "value": "31.7±3.2", "unit": "%"}, {"measurement": "IC50 fold lower compared to 5-fluorouracil", "setting": "[5]", "value": "≥ 1000", "unit": "fold"}, {"measurement": "IC50 fold lower compared to gemcitabine", "setting": "[5]", "value": "at least 100 fold"}, {"measurement": "IC50", "setting": "[6]", "value": "9 ± 0.3", "unit": "nM"}, {"measurement": "IC90", "setting": "[6]", "value": "> 5000", "unit": "nM"}]}]}
